Data reported in PubChem BioAssay AID224 (DTP/NCI, 2004).
Where “and” joins values, the source holds several entries; their conditions need not be identical. Equal entries are not always repeated. Inconclusive results and toxic doses are left out.

Test system: P335 leukemia ip, BDF1 mice, survival T/C %
Test: NCI In Vivo Anticancer Drug Screen. Data for tumor model P335 Leukemia (intraperitoneal) in B6D2F1 (BDF1) mice
Conditions: endpoint: mean survival time, higher = longer survival
Procedure: The antitumor activity of compounds was measured in mice bearing transplantable tumors. Survival or tumor size were measured and the results are expressed as the measurement made in the treated group (T) divided by the measurement made in the vehicle treated control group (C). The tumor model used in this assay is P335 Leukemia (intraperitoneal) in B6D2F1 (BDF1) mice

[1] = dose: 5.0 mg/kg/injection, schedule: Q01DX Z (ip), vehicle: carboxymethylcellulose (CMC)
[2] = dose: 12.5 mg/kg/injection, schedule: Q01DX Z (ip), vehicle: carboxymethylcellulose (CMC)
[3] = dose: 16.0 mg/kg/injection, schedule: Q01DX Z (ip), vehicle: carboxymethylcellulose (CMC)
[4] = dose: 31.0 mg/kg/injection, schedule: Q01DX Z (ip), vehicle: carboxymethylcellulose (CMC)
[5] = dose: 62.5 mg/kg/injection, schedule: Q01DX Z (ip), vehicle: carboxymethylcellulose (CMC)
[6] = dose: 125.0 mg/kg/injection, schedule: Q01DX Z (ip), vehicle: carboxymethylcellulose (CMC)
[7] = dose: 2.0 mg/kg/injection, schedule: Q01DX Z (sc), vehicle: steriod suspending solution
[8] = dose: 4.0 mg/kg/injection, schedule: Q01DX Z (sc), vehicle: steriod suspending solution
[9] = dose: 8.0 mg/kg/injection, schedule: Q01DX Z (sc), vehicle: steriod suspending solution
[10] = dose: 16.0 mg/kg/injection, schedule: Q01DX Z (sc), vehicle: steriod suspending solution
[11] = dose: 250.0 mg/kg/injection, schedule: Q01DX Z (sc), vehicle: steriod suspending solution

## C[C@H]1C(=O)O[C@@H]2CCN3CC=C(COC(=O)[C@](C)(O)[C@@]1(C)O)[C@H]23
dose: 3.75 mg/kg/injection, schedule: Q01DX Z (ip), vehicle: carboxymethylcellulose (CMC)
  T/C: 87 % of control
dose: 7.5 mg/kg/injection, schedule: Q01DX Z (ip), vehicle: carboxymethylcellulose (CMC)
  T/C: 94 % of control
dose: 15.0 mg/kg/injection, schedule: Q01DX Z (ip), vehicle: carboxymethylcellulose (CMC)
  T/C: 91 % of control and 93 % of control
dose: 30.0 mg/kg/injection, schedule: Q01DX Z (ip), vehicle: carboxymethylcellulose (CMC)
  T/C: 96 % of control

## CCC(=O)O[C@H]1CC[C@H]2[C@@H]3CCC4=CC(=O)CC[C@]4(C)[C@H]3CC[C@]12C
dose: 23.43 mg/kg/injection, schedule: Q01DX Z (sc), vehicle: steriod suspending solution
  T/C: 114 % of control
dose: 60.0 mg/kg/injection, schedule: Q01DX Z (sc), vehicle: steriod suspending solution
  T/C: 106 % of control
dose: 93.75 mg/kg/injection, schedule: Q01DX Z (sc), vehicle: steriod suspending solution
  T/C: 114 % of control
dose: 300.0 mg/kg/injection, schedule: Q01DX Z (sc), vehicle: steriod suspending solution
  T/C: 122 % of control
dose: 375.0 mg/kg/injection, schedule: Q01DX Z (sc), vehicle: steriod suspending solution
  T/C: 107 % of control
dose: 1500.0 mg/kg/injection, schedule: Q01DX Z (sc), vehicle: steriod suspending solution
  T/C: 98 % of control and 113 % of control

## NC(=O)N(CCCl)N=O
dose: 0.12 mg/kg/injection, schedule: Q01DX Z (ip), vehicle: carboxymethylcellulose (CMC)
  T/C: 94 % of control
dose: 0.25 mg/kg/injection, schedule: Q01DX Z (ip), vehicle: carboxymethylcellulose (CMC)
  T/C: 114 % of control
dose: 1.0 mg/kg/injection, schedule: Q01DX Z (ip), vehicle: carboxymethylcellulose (CMC)
  T/C: 110 % of control

## NC(Cc1ccc(N(CCCl)CCCl)cc1)C(=O)O (stereo unspecified)
dose: 2.5 mg/kg/injection, schedule: Q01DX Z (ip), vehicle: carboxymethylcellulose (CMC)
  T/C: 87 % of control
[1]
  T/C: 94 % of control

## COc1cc2c(c(OC)c1OC)-c1ccc(OC)c(=O)cc1[C@@H](NC(C)=O)CC2
dose: 63.0 micrograms/kg/injection, schedule: Q01DX Z (ip), vehicle: saline
  T/C: 104 % of control
dose: 125.0 micrograms/kg/injection, schedule: Q01DX Z (ip), vehicle: saline
  T/C: 101 % of control
dose: 250.0 micrograms/kg/injection, schedule: Q01DX Z (ip), vehicle: saline
  T/C: 104 % of control

## CC/C(=C(/CC)c1ccc(O)cc1)c1ccc(O)cc1
dose: 15.6 mg/kg/injection, schedule: Q01DX Z (sc), vehicle: steriod suspending solution
  T/C: 91 % of control

## O=C(O)CCCc1ccc(N(CCCl)CCCl)cc1
dose: 6.25 mg/kg/injection, schedule: Q01DX Z (ip), vehicle: carboxymethylcellulose (CMC)
  T/C: 89 % of control
[2]
  T/C: 89 % of control

## CCn1cnc2c(=S)nc[nH]c21
dose: 15.6 mg/kg/injection, schedule: Q01DX Z (ip), vehicle: carboxymethylcellulose (CMC)
  T/C: 96 % of control

## Clc1ncnc2nc[nH]c12
dose: 8.0 mg/kg/injection, schedule: Q01DX Z (ip), vehicle: carboxymethylcellulose (CMC)
  T/C: 89 % of control
[3]
  T/C: 101 % of control
[4]
  T/C: 89 % of control
dose: 31.25 mg/kg/injection, schedule: Q01DX Z (ip), vehicle: carboxymethylcellulose (CMC)
  T/C: 110 % of control
[5]
  T/C: 101 % of control
[6]
  T/C: 110 % of control

## C[C@]12C=CC(=O)C=C1CC[C@@H]1[C@@H]2[C@@H](O)C[C@@]2(C)[C@H]1CC[C@]2(O)C(=O)CO
[7]
  T/C: 97 % of control
[8]
  T/C: 103 % of control and 111 % of control
[9]
  T/C: 101 % of control and 117 % of control
[10]
  T/C: 95 % of control and 117 % of control
dose: 32.0 mg/kg/injection, schedule: Q01DX Z (sc), vehicle: steriod suspending solution
  T/C: 95 % of control

## N#[N+]c1cnc([O-])[nH]c1=O
dose: 0.31 mg/kg/injection, schedule: Q01DX Z (ip), vehicle: carboxymethylcellulose (CMC)
  T/C: 96 % of control
dose: 0.62 mg/kg/injection, schedule: Q01DX Z (ip), vehicle: carboxymethylcellulose (CMC)
  T/C: 123 % of control
dose: 1.25 mg/kg/injection, schedule: Q01DX Z (ip), vehicle: carboxymethylcellulose (CMC)
  T/C: 103 % of control
[1]
  T/C: 124 % of control
dose: 10.0 mg/kg/injection, schedule: Q01DX Z (ip), vehicle: carboxymethylcellulose (CMC)
  T/C: 103 % of control and 104 % of control and 110 % of control

## CN(C)c1ccc(Nc2c3ccccc3nc3ccccc23)cc1
dose: 1.6 mg/kg/injection, schedule: Q01DX Z (ip), vehicle: carboxymethylcellulose (CMC)
  T/C: 112 % of control
dose: 3.1 mg/kg/injection, schedule: Q01DX Z (ip), vehicle: carboxymethylcellulose (CMC)
  T/C: 93 % of control
dose: 6.2 mg/kg/injection, schedule: Q01DX Z (ip), vehicle: carboxymethylcellulose (CMC)
  T/C: 96 % of control
[2]
  T/C: 117 % of control

## C[C@]12CCC(=O)C=C1CC[C@@H]1[C@@H]2CC[C@@]2(C)[C@H]1CC[C@]2(C)O
dose: 0.5 mg/kg/injection, schedule: Q01DX Z (sc), vehicle: steriod suspending solution
  T/C: 117 % of control
dose: 1.0 mg/kg/injection, schedule: Q01DX Z (sc), vehicle: steriod suspending solution
  T/C: 96 % of control
[7]
  T/C: 121 % of control
[8]
  T/C: 116 % of control
[9]
  T/C: 118 % of control
[10]
  T/C: 116 % of control
dose: 31.0 mg/kg/injection, schedule: Q01DX Z (sc), vehicle: steriod suspending solution
  T/C: 116 % of control
dose: 62.5 mg/kg/injection, schedule: Q01DX Z (sc), vehicle: steriod suspending solution
  T/C: 106 % of control and 111 % of control
dose: 125.0 mg/kg/injection, schedule: Q01DX Z (sc), vehicle: steriod suspending solution
  T/C: 106 % of control
[11]
  T/C: 109 % of control
dose: 500.0 mg/kg/injection, schedule: Q01DX Z (sc), vehicle: steriod suspending solution
  T/C: 100 % of control

## C[C@@H]1C[C@H]2CC[C@H](O2)[C@H](C)C(=O)O[C@@H](C)C[C@@H]2CC[C@@H](O2)[C@@H](C)C(=O)O[C@H](C)C[C@H]2CC[C@H](O2)[C@H](C)C(=O)O[C@@H](C)C[C@@H]2CC[C@@H](O2)[C@@H](C)C(=O)O1
dose: 25.0 mg/kg/injection, schedule: Q01DX Z (ip), vehicle: carboxymethylcellulose (CMC)
  T/C: 96 % of control
dose: 50.0 mg/kg/injection, schedule: Q01DX Z (ip), vehicle: carboxymethylcellulose (CMC)
  T/C: 88 % of control
dose: 100.0 mg/kg/injection, schedule: Q01DX Z (ip), vehicle: carboxymethylcellulose (CMC)
  T/C: 86 % of control

## O=c1[nH]c(=O)n(C2CC(O)C(CO)O2)cc1I (stereo unspecified)
dose: 225.0 mg/kg/injection, schedule: Q01DX Z (ip), vehicle: carboxymethylcellulose (CMC)
  T/C: 93 % of control
dose: 450.0 mg/kg/injection, schedule: Q01DX Z (ip), vehicle: carboxymethylcellulose (CMC)
  T/C: 104 % of control

## CC[C@]1(O)C[C@H]2CN(CCc3c([nH]c4ccccc34)[C@@](C(=O)OC)(c3cc4c(cc3OC)N(C=O)[C@H]3[C@@](O)(C(=O)OC)[C@H](OC(C)=O)[C@]5(CC)C=CCN6CC[C@]43[C@@H]65)C2)C1
dose: 0.12 mg/kg/injection, schedule: Q01DX Z (ip), vehicle: water
  T/C: 234 % of control and 101 % of control and 107 % of control
dose: 0.5 mg/kg/injection, schedule: Q01DX Z (ip), vehicle: water
  T/C: 89 % of control and 90 % of control
dose: 1.0 mg/kg/injection, schedule: Q01DX Z (ip), vehicle: water
  T/C: 86 % of control

## O=CCC(O)C(O)C(O)CO (stereo unspecified)
dose: 0.8 mg/kg/injection, schedule: Q01DX Z (ip), vehicle: carboxymethylcellulose (CMC)
  T/C: 104 % of control
[3]
  T/C: 100 % of control
[4]
  T/C: 93 % of control
[5]
  T/C: 114 % of control
[6]
  T/C: 104 % of control

## C[C@]12CCC(=O)C=C1CC[C@@H]1[C@@H]2C(=O)C[C@@]2(C)[C@H]1CC[C@]2(O)C(=O)CO
dose: 3.9 mg/kg/injection, schedule: Q01DX Z (sc), vehicle: steriod suspending solution
  T/C: 111 % of control
dose: 31.25 mg/kg/injection, schedule: Q01DX Z (sc), vehicle: steriod suspending solution
  T/C: 101 % of control
[11]
  T/C: 94 % of control

## O=C1C(NC(=O)C2CCCCC2)=C(N2CC2)C(=O)C(NC(=O)C2CCCCC2)=C1N1CC1
dose: 150.0 mg/kg/injection, schedule: Q01DX Z (ip), vehicle: carboxymethylcellulose (CMC)
  T/C: 103 % of control
dose: 300.0 mg/kg/injection, schedule: Q01DX Z (ip), vehicle: carboxymethylcellulose (CMC)
  T/C: 101 % of control
dose: 600.0 mg/kg/injection, schedule: Q01DX Z (ip), vehicle: carboxymethylcellulose (CMC)
  T/C: 106 % of control

## Cc1n[nH]c(=O)[nH]c1=O
dose: 50.0 mg/kg/injection, schedule: Q01DX Z (ip), vehicle: other
  T/C: 97 % of control
dose: 100.0 mg/kg/injection, schedule: Q01DX Z (ip), vehicle: other
  T/C: 97 % of control
dose: 200.0 mg/kg/injection, schedule: Q01DX Z (ip), vehicle: other
  T/C: 102 % of control
dose: 400.0 mg/kg/injection, schedule: Q01DX Z (ip), vehicle: other
  T/C: 103 % of control
